15 compounds from patent publication US12624044B2, “SMARCA degraders and uses thereof” (Kymera Therapeutics, Inc., priority 2019, dated 2026) can be followed below.

Holding throughout (type): cell-based
The target in test [1] is T1, SMARCA2 (Homo sapiens, UniProt P51531). As to the kind of experiment: MSD SMARCA2 degradation in A549 cell line. As to conditions: for DC50 / Dmax: 24 h; for DC50: read-out: SMARCA2 MSD A549 degradation 24 h: Average external-Abs DC50; for Dmax: A549, A549 cells. The method in brief: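 SMARCA2 remaining was measured by MSD electrochemiluminescence on RIPA lysates (anti-SMARCA2 plus SULFO-TAG anti-rabbit). Prior exposure: 24 h of A549 cells to a 10-point, 3-fold dilution series topping at 1000 nM final; Dmax % given as graded codes.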
T1 sequence (P51531 whole entry): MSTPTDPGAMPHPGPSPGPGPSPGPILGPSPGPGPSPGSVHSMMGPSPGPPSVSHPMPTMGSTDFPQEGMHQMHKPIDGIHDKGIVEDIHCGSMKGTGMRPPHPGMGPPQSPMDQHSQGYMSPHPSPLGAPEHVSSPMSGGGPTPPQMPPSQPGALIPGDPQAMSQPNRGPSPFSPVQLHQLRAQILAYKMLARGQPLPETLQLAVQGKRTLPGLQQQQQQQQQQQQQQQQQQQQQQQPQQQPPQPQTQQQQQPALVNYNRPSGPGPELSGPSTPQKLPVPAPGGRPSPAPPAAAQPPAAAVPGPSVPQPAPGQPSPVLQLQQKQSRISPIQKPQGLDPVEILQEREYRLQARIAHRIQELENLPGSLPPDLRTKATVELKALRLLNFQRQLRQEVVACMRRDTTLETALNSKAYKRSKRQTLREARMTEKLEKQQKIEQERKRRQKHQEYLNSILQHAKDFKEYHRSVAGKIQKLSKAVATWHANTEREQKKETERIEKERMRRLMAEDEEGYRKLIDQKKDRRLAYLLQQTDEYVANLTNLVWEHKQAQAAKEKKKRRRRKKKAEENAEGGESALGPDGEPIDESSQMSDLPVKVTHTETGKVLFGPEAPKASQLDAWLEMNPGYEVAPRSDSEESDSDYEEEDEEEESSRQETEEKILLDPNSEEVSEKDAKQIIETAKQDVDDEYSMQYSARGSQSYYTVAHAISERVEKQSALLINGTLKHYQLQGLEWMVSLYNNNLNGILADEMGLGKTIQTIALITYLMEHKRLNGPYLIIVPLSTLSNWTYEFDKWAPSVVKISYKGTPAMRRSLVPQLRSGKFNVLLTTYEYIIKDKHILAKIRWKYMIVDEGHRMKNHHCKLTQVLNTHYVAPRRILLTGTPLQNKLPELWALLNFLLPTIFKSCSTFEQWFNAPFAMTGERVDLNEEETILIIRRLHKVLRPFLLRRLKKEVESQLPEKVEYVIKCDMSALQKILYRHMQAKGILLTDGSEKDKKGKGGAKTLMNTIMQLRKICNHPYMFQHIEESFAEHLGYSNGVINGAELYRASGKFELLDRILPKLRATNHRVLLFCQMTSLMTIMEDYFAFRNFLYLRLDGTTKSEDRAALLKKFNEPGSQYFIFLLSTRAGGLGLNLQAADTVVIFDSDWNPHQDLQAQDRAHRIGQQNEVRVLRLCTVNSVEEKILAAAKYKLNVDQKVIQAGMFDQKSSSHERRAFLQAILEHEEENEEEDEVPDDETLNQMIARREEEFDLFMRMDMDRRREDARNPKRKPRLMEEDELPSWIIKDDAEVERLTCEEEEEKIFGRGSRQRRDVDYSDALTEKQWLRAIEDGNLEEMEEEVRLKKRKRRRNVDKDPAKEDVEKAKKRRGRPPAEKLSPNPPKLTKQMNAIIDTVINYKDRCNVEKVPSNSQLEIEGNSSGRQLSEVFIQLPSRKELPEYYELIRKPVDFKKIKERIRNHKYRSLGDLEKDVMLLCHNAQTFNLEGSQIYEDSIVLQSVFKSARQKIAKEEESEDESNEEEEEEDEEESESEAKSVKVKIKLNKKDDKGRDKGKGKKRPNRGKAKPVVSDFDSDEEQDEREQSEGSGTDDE

In test [2] the target is T1, SMARCA2. As to the kind of experiment: MSD SMARCA2 degradation in NCI-H1299 cell line (24 h). Also on record: HC: NCI-H1299 cells treated with DMSO; host or cells: NCI-H1299. As to conditions: NCI-H1299 cells. The method in brief:
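SMARCA2 measured by MSD electrochemiluminescence (primary 0.3 ug/ml, secondary 1 ug/ml) on lysates from NCI-H1299 cells exposed to compounds for 24 h across nine 3-fold dilutions. Signal scaled from A2780 cells (no SMARCA2) to DMSO-treated H1299 controls, and maximal degradation after 24 h reported in letter categories.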

In the next test the target is T2, SMARCA4 (Homo sapiens, UniProt P51532).
T2 construct: SMARCA2 and SMARCA4 protein degradation in MV4-11 cells; endogenous in cells; host or cells: MV4-11
T2 sequence (P51532 whole entry): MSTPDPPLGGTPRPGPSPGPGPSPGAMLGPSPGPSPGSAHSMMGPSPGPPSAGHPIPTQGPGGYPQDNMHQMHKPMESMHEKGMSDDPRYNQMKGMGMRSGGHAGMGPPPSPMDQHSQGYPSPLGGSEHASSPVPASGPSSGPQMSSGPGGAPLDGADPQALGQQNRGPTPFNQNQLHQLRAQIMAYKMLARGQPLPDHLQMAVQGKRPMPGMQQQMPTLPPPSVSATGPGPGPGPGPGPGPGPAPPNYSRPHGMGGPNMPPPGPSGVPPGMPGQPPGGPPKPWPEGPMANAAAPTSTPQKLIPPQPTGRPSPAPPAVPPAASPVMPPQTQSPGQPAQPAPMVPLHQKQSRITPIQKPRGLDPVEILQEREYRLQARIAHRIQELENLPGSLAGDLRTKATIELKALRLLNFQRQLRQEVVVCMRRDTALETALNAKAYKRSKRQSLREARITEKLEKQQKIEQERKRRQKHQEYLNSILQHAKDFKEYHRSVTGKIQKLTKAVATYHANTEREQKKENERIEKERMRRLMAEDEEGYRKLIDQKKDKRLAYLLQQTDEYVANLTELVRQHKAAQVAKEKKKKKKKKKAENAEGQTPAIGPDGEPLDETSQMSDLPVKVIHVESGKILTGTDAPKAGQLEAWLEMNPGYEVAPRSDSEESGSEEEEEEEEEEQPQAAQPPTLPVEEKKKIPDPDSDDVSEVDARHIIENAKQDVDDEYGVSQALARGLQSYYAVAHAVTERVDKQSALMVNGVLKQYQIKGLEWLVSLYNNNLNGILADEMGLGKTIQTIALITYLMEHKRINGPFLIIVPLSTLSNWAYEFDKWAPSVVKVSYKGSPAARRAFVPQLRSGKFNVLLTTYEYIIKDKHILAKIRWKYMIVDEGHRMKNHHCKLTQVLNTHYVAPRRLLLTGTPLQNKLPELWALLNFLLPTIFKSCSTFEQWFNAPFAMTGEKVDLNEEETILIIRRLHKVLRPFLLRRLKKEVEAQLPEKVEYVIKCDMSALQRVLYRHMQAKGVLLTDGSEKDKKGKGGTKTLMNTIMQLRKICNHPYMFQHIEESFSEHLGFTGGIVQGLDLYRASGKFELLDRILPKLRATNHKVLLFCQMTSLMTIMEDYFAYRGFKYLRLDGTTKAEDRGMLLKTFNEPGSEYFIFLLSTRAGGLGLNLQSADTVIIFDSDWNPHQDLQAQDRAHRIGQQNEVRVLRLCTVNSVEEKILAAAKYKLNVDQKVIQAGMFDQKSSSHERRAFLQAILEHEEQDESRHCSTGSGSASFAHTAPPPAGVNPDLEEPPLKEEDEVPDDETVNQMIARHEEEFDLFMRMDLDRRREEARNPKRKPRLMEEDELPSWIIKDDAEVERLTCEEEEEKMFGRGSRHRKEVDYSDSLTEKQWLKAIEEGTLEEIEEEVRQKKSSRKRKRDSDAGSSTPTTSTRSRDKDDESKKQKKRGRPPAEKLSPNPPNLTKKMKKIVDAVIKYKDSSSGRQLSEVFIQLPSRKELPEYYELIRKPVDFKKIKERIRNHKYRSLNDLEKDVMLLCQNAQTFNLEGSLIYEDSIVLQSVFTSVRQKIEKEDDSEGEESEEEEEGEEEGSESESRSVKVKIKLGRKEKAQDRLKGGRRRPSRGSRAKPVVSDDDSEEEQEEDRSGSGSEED
As to the kind of experiment: SMARCA4 Western blot MV4-11 degradation. As to conditions: for DC50 / Dmax: 24 h; for DC50: read-out: SMARCA4 WB MV411 degradation 24 h: Average external-Abs DC50; for Dmax: MV4-11, MV4-11 cells, read-out: SMARCA4 WB MV411 degradation 24 h: Average Dmax %. The method in brief:
(§1)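 MV4-11 cells treated with compound for 24 h, lysed in RIPA with protease/phosphatase inhibitors, and SMARCA2 and SMARCA4 (BRG1) levels assessed by Western blot with β-actin loading control and LI-COR fluorescent read-out. Maximal degradation (Dmax %) after 24 h binned into letter codes.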

The target in test [3] is T1, SMARCA2. As to the kind of experiment: SMARCA2 Western blot MV4-11 degradation. Particulars: for DC50 / Dmax: 24 h; for DC50: read-out: SMARCA2 WB MV411 degradation 24 h: Average external-Abs DC50; for Dmax: MV4-11, MV4-11 cells, read-out: SMARCA2 WB MV411 degradation 24 h: Average Dmax %. The method in brief: as §1

For `Cc1ncsc1-c1ccc(CNC(=O)[C@@H]2C[C@@H](O)CN2C(=O)[C@@H](NC(=O)[C@H]2CC3(C2)C[C@H](N2CCC(n4cc(-c5cc(-c6ccccc6O)nnc5N)cn4)CC2)C3)C(C)(C)C)cc1` (some centres unmarked) [I-390], at SMARCA2 [1] (A549 cells), the “SMARCA2 MSD A549 degradation 24 h: Average Dmax %” value is recorded as “B (B (>70-90% degradation))” and the DC50 lay within 0.1 to 0.5 µM. The “SMARCA2 MSD H1299 degradation 24 h: Dmax %” value on SMARCA2 [2] was “C (C (50-70 degradation))”. For the same compound, the DC50 at SMARCA2 [2] (read-out: SMARCA2 MSD H1299 degradation 24 h: External Abs-DC50) was 0.501 to 1 µM. Moreover, at SMARCA4 (MV4-11 cells), the “SMARCA4 WB MV411 degradation 24 h: Average Dmax %” value is listed as “D (D (<50% degradation))” and the DC50 was less than 0.1 µM. Besides, on SMARCA2 [3] (MV4-11 cells), the “SMARCA2 WB MV411 degradation 24 h: Average Dmax %” value was “B (B (>70-90% degradation))” and the DC50 was less than 0.1 µM.

For the compound `Cc1ncsc1-c1ccc(CNC(=O)[C@@H]2C[C@@H](O)CN2C(=O)[C@@H](NC(=O)CN2CCC(c3cnc(N4C5CCC4CN(c4cc(-c6ccccc6O)nnc4N)C5)nc3)CC2)C(C)(C)C)c(C(F)(F)F)c1` [I-522], the results for the Dmax at SMARCA2 [1], at SMARCA4 and at SMARCA2 [3] were 70 to 90%, 70 to 90% and more than 90%, respectively. In addition, the DC50 at SMARCA2 [1] (A549 cells) is 0.1 to 0.5 µM; at SMARCA4 (MV4-11 cells), more than 1 µM; at SMARCA2 [3] (MV4-11 cells) it was less than 0.1 µM.

Consider `Cc1ncsc1-c1ccc(CNC(=O)[C@@H]2C[C@@H](O)CN2C(=O)[C@@H](NC(=O)CN2CCN(C3CCC(c4cnc(N5C6CCC5CN(c5cc(-c7ccccc7O)nnc5N)C6)nc4)CC3)CC2)C(C)(C)C)cc1` (stereo partly drawn) [I-354, (2S,4R)-1-((2S)-2-(2-(4-(4-(2-(3-(3-amino-6-(2-hydroxyphenyl)pyridazin-4-yl)-3,8-diazabicyclo[3.2.1]octan-8-yl)pyrimidin-5-yl)cyclohexyl)piperazin-1-yl)acetamido)-3,3-dimethylbutanoyl)-4-hydroxy-N-(4-(4-methylthiazol-5-yl)benzyl)pyrrolidine-2-carboxamide], for which the Dmax at SMARCA2 [1], on SMARCA4 and on SMARCA2 [3] was more than 90% in each case. For the same compound, the DC50 at SMARCA2 [1] (A549 cells), on SMARCA4 (MV4-11 cells) and at SMARCA2 [3] (MV4-11 cells) was less than 0.1 µM throughout.

Take `Cc1ncsc1-c1ccc(CNC(=O)[C@@H]2C[C@@H](O)CN2C(=O)[C@@H](NC(=O)[C@H]2CC[C@H](c3cnc(N4C5CCC4CN(c4cc(-c6ccccc6O)nnc4N)C5)nc3)CC2)C(C)(C)C)c(C(=O)N(C)C)c1` [I-431]: the Dmax at SMARCA2 [1], at SMARCA4 and at SMARCA2 [3] was more than 90% throughout. Moreover, the DC50 on SMARCA2 [1] (A549 cells), on SMARCA4 (MV4-11 cells) and on SMARCA2 [3] (MV4-11 cells) was less than 0.1 µM throughout.

In the case of `Cc1ncsc1-c1ccc(CNC(=O)[C@@H]2C[C@@H](O)CN2C(=O)[C@@H](NC(=O)[C@H]2CC[C@H](Cc3cnc(N4C5CCC4CN(c4cc(-c6ccccc6O)nnc4N)C5)nc3)CC2)C(C)(C)C)cc1` [I-366, (2S,4R)-1-((2S)-2-((1r,4S)-4-((2-(3-(3-amino-6-(2-hydroxyphenyl)pyridazin-4-yl)-3,8-diazabicyclo[3.2.1]octan-8-yl)pyrimidin-5-yl)methyl)cyclohexane-1-carboxamido)-3,3-dimethylbutanoyl)-4-hydroxy-N-(4-(4-methylthiazol-5-yl)benzyl) pyrrolidine-2-carboxamide], the Dmax on SMARCA2 [1], at SMARCA4 and at SMARCA2 [3] was more than 90% throughout. The 50% degradation concentration (DC50) on SMARCA2 [1] (A549 cells), on SMARCA4 (MV4-11 cells) and at SMARCA2 [3] (MV4-11 cells) was less than 0.1 µM each time.

Consider `Cc1ncsc1-c1ccc(CNC(=O)[C@@H]2C[C@@H](O)CN2C(=O)[C@@H](NC(=O)[C@H]2CC[C@H](CN(C)Cc3cnc(N4C5CCC4CN(c4cc(-c6ccccc6O)nnc4N)C5)nc3)CC2)C(C)(C)C)cc1` [I-486], for which the Dmax at SMARCA2 [1] is more than 90%; at SMARCA4, 50 to 70%; on SMARCA2 [3], more than 90%. The DC50 at SMARCA2 [1] (A549 cells) was 0.1 to 0.5 µM; at SMARCA4 (MV4-11 cells) it was 0.1 to 0.5 µM; on SMARCA2 [3] (MV4-11 cells) it was less than 0.1 µM.

For `Cc1ncsc1-c1ccc(CNC(=O)[C@@H]2C[C@@H](OC(=O)[C@H](C)N)CN2C(=O)[C@@H](NC(=O)[C@H]2CC[C@H](c3cnc(N4C5CCC4CN(c4cc(-c6ccccc6O)nnc4N)C5)nc3)CC2)C(C)(C)C)cc1` [I-409], the Dmax on SMARCA2 [1], at SMARCA4 and at SMARCA2 [3] was more than 90% throughout. In addition, the DC50 at SMARCA2 [1] (A549 cells), on SMARCA4 (MV4-11 cells) and on SMARCA2 [3] (MV4-11 cells) was less than 0.1 µM in each case.

Take `Cc1ncsc1-c1ccc(CNC(=O)[C@@H]2C[C@@H](O)CN2C(=O)[C@@H](NC(=O)[C@H]2CC[C@H](CCCCCN3CCC(Cn4cc(-c5cc(-c6ccccc6O)nnc5N)cn4)CC3)CC2)C(C)(C)C)cc1` [I-378]: the Dmax on SMARCA2 [1], on SMARCA4 and on SMARCA2 [3] was more than 90% in each case. Further, the results for the 50% degradation concentration (DC50) at SMARCA2 [1] (A549 cells), on SMARCA4 (MV4-11 cells) and on SMARCA2 [3] (MV4-11 cells) were 0.1 to 0.5 µM, less than 0.1 µM and less than 0.1 µM, respectively.

In the case of `Cc1ncsc1-c1ccc(CNC(=O)[C@@H]2C[C@@H](O)CN2C(=O)[C@@H](NC(=O)[C@@H]2CC=C(c3cnc(N4C5CCC4CN(c4cc(-c6ccccc6O)nnc4N)C5)nc3)CC2)C(C)(C)C)cc1` [I-406], the Dmax at SMARCA2 [1] is more than 90%; at SMARCA4, 70 to 90%; at SMARCA2 [3] it was more than 90%. Further, the DC50 on SMARCA2 [1] (A549 cells), on SMARCA4 (MV4-11 cells) and on SMARCA2 [3] (MV4-11 cells) was less than 0.1 µM each time.

As to `Cc1ncsc1-c1ccc(CNC(=O)[C@@H]2C[C@@H](O)CN2C(=O)[C@@H](NC(=O)CN2CCN([C@H]3CC[C@@H](c4cnc(N5C6CCC5CN(c5cc(-c7ccccc7O)nnc5N)C6)nc4)CC3)CC2)C(C)(C)C)cc1` (single isomer, unassigned) [I-445], the Dmax at SMARCA2 [1], on SMARCA4 and on SMARCA2 [3] was more than 90% in each case. The half-maximal degradation concentration (DC50) at SMARCA2 [1] (A549 cells) was 0.1 to 0.5 µM; on SMARCA4 (MV4-11 cells) it was less than 0.1 µM; at SMARCA2 [3] (MV4-11 cells) it was less than 0.1 µM.

Regarding `Cc1ncsc1-c1ccc(CNC(=O)[C@@H]2C[C@@H](O)CN2C(=O)[C@@H](NC(=O)c2ccc(N3CC(n4cc(-c5cc(-c6ccccc6O)nnc5N)cn4)C3)cc2)C(C)(C)C)cc1` [I-514], the Dmax on SMARCA2 [1], at SMARCA4 and on SMARCA2 [3] was more than 90% in each case. Also, the DC50 at SMARCA2 [1] (A549 cells) is 0.1 to 0.5 µM; at SMARCA4 (MV4-11 cells), less than 0.1 µM; on SMARCA2 [3] (MV4-11 cells) it was less than 0.1 µM.

Regarding `Cc1ncsc1-c1ccc(CNC(=O)[C@@H]2C[C@@H](O)CN2C(=O)[C@@H](NC(=O)C23CCC(CN4CCC(n5cc(-c6cc(-c7ccccc7O)nnc6N)cn5)CC4)(CC2)CC3)C(C)(C)C)cc1` [I-428], the Dmax is more than 90% on SMARCA2 [1], 70 to 90% on SMARCA4 and more than 90% at SMARCA2 [3]. Further, the DC50 at SMARCA2 [1] (A549 cells) is 0.1 to 0.5 µM; at SMARCA4 (MV4-11 cells), 0.1 to 0.5 µM; at SMARCA2 [3] (MV4-11 cells), less than 0.1 µM.

For `Cc1ncsc1-c1ccc(CNC(=O)[C@@H]2C[C@@H](O)CN2C(=O)[C@@H](NC(=O)[C@H]2CC[C@H](CN3CCC(c4cnc(N5C6CCC5CN(c5cc(-c7ccccc7O)nnc5N)C6)nc4)CC3)CC2)C(C)(C)C)cc1` [I-375], the Dmax is more than 90% on SMARCA2 [1], 50 to 70% on SMARCA4 and more than 90% at SMARCA2 [3]. Also, the DC50 on SMARCA2 [1] (A549 cells) is 0.1 to 0.5 µM; at SMARCA4 (MV4-11 cells), 0.501 to 1 µM; at SMARCA2 [3] (MV4-11 cells), less than 0.1 µM.

For `Cc1ncsc1-c1ccc(CNC(=O)[C@@H]2C[C@@H](O)CN2C(=O)[C@@H](NC(=O)[C@H]2CC3(C2)C[C@H](N2CCC(c4cnc(N5C6CCC5CN(c5cc(-c7ccccc7O)nnc5N)C6)nc4)CC2)C3)C(C)(C)C)cc1` (some centres unmarked) [I-423], the Dmax was more than 90% on SMARCA2 [1], 50 to 70% on SMARCA4 and more than 90% at SMARCA2 [3]. Besides, the DC50 at SMARCA2 [1] (A549 cells) is less than 0.1 µM; at SMARCA4 (MV4-11 cells), 0.1 to 0.5 µM; on SMARCA2 [3] (MV4-11 cells), less than 0.1 µM.

For the compound `Cc1ncsc1-c1ccc(CNC(=O)[C@@H]2C[C@@H](O)CN2C(=O)[C@@H](NC(=O)C2CC(N3CCC(n4cc(-c5cc(-c6ccccc6O)nnc5N)cn4)CC3)C2)C(C)(C)C)cc1` (some centres unmarked) [I-484], the Dmax was 70 to 90% at SMARCA2 [1], 70 to 90% at SMARCA4 and more than 90% on SMARCA2 [3]. In addition, the DC50 at SMARCA2 [1] (A549 cells) was 0.1 to 0.5 µM; at SMARCA4 (MV4-11 cells), 0.1 to 0.5 µM; on SMARCA2 [3] (MV4-11 cells) it was less than 0.1 µM.
